# Results reported in PubChem BioAssay (NCI).
#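 The concentration for 50% growth inhibition is given as GI50. At the TGI there is no net growth.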
# Legend:
# Test in all cases: NCI tumour cell line growth inhibition, 384-well format
# [1] = tested on: 786-0 renal
# [2] = tested on: MDA-MB-468 breast
# [3] = tested on: SN12C renal
# [4] = tested on: BT-549 breast
# [5] = tested on: DU-145 prostate
# [6] = tested on: NCI-H522 lung
# [7] = tested on: UACC-257 melanoma
# [8] = tested on: M14 melanoma
# [9] = tested on: MDA-MB-231 breast
# [10] = tested on: HT29 colon
# [11] = tested on: UACC-62 melanoma
# [12] = tested on: SK-OV-3 ovarian
# [13] = tested on: NCI/ADR-RES ovarian
# [14] = tested on: HCC-2998 colon
# [15] = tested on: SF-539 CNS
# [16] = tested on: K-562 leukemia
# [17] = tested on: NCI-H226 lung
# [18] = tested on: NCI-H23 lung
# [19] = tested on: SW-620 colon
# [20] = tested on: PC-3 prostate
# [21] = tested on: CAKI-1 renal
# [22] = tested on: COLO 205 colon
# [23] = tested on: HOP-92 NSCLC
# [24] = tested on: SNB-75 CNS
# [25] = tested on: EKVX NSCLC
# [26] = tested on: LOX IMVI melanoma
# [27] = tested on: HCT-15 colon
# [28] = tested on: HCT-116 colon
# [29] = tested on: TK-10 renal
# [30] = tested on: MALME-3M melanoma
# [31] = tested on: SR leukemia
# [32] = tested on: UO-31 renal
# [33] = tested on: SF-268 CNS
# [34] = tested on: CCRF-CEM leukemia
# [35] = tested on: SK-MEL-28 melanoma
# [36] = tested on: MCF7 breast
# [37] = tested on: IGROV1 ovarian
# [38] = tested on: SF-295 CNS
# [39] = tested on: OVCAR-5 ovarian
# [40] = tested on: T-47D breast
# [41] = tested on: SK-MEL-2 melanoma
# [42] = tested on: A549 NSCLC
# [43] = tested on: RXF 393 renal
# [44] = tested on: MOLT-4 leukemia
# [45] = tested on: SNB-19 CNS
# [46] = tested on: HOP-62 NSCLC
# [47] = tested on: HS 578T breast
compound,measurement,setting,value
CN1C(=O)[C@@H](CC2CCCC2)N(C2CCCC2)c2nc(Nc3cc(Cl)c(O)c(Cl)c3)ncc21,GI50,[1],8.07 µM
same,TGI,[1],24.3 µM
same,GI50,[2],2.89 µM
same,TGI,[2],8.38 µM
same,GI50,[3],10.4 µM
same,TGI,[3],> 100 µM
same,GI50,[4],4.02 µM
same,TGI,[4],17.5 µM
same,GI50,[5],6.56 µM
same,TGI,[5],64.7 µM
same,GI50,[6],2.6 µM
same,TGI,[6],8.91 µM
same,GI50,[7],6 µM
same,TGI,[7],25.4 µM
same,GI50,[8],6.27 µM
same,TGI,[8],97.7 µM
same,GI50,[9],7.5 µM
same,TGI,[9],> 100 µM
same,GI50,[10],35.6 µM
same,TGI,[10],> 100 µM
same,GI50,[11],8.84 µM
same,TGI,[11],23.2 µM
same,GI50,[12],6.01 µM
same,TGI,[12],45.2 µM
same,GI50,[13],3.46 µM
same,TGI,[13],26.7 µM
same,GI50,[14],5.31 µM
same,TGI,[14],20.5 µM
same,GI50,[15],8.81 µM
same,TGI,[15],27.2 µM
same,GI50,[16],3.57 µM
same,TGI,[16],15 µM
same,GI50,[17],11.5 µM
same,TGI,[17],31.7 µM
same,GI50,[18],4.5 µM
same,TGI,[18],35 µM
same,GI50,[19],7.08 µM
same,TGI,[19],40.7 µM
same,GI50,[20],3.42 µM
same,TGI,[20],20.2 µM
same,GI50,[21],3.95 µM
same,TGI,[21],22.2 µM
same,GI50,[22],27.8 µM
same,TGI,[22],81.8 µM
same,GI50,[23],6.46 µM
same,TGI,[23],42 µM
same,GI50,[24],6.35 µM
same,TGI,[24],49 µM
same,GI50,[25],3.55 µM
same,TGI,[25],20 µM
same,GI50,[26],6.14 µM
same,TGI,[26],19.5 µM
same,GI50,[27],4.62 µM
same,TGI,[27],21 µM
same,GI50,[28],3.9 µM
same,TGI,[28],13.7 µM
same,GI50,[29],3.69 µM
same,TGI,[29],20.1 µM
same,GI50,[30],4.41 µM
same,TGI,[30],29.9 µM
same,GI50,[31],2.87 µM
same,TGI,[31],8.95 µM
same,GI50,[32],4.75 µM
same,TGI,[32],23.2 µM
same,GI50,[33],11.2 µM
same,TGI,[33],70 µM
same,GI50,[34],3.05 µM
same,TGI,[34],8.14 µM
same,GI50,[35],4.79 µM
same,TGI,[35],> 100 µM
same,GI50,[36],3.16 µM
same,TGI,[36],23.1 µM
same,GI50,[37],9.94 µM
same,TGI,[37],39.6 µM
same,GI50,[38],13 µM
same,TGI,[38],29.3 µM
same,GI50,[39],14.8 µM
same,TGI,[39],> 100 µM
same,GI50,[40],2.38 µM
same,TGI,[40],> 100 µM
same,GI50,[41],13.5 µM
same,TGI,[41],28 µM
same,GI50,[42],4.89 µM
same,TGI,[42],70.7 µM
same,GI50,[43],2.45 µM
same,TGI,[43],7.68 µM
same,GI50,[44],1.67 µM
same,TGI,[44],3.06 µM
same,GI50,[45],4.67 µM
same,TGI,[45],> 100 µM
same,GI50,[46],12.1 µM
same,TGI,[46],33.1 µM
same,GI50,[47],3.04 µM
same,TGI,[47],23.4 µM
